From US20260184663A1, “INDENE COMPOUNDS, PHARMACEUTICAL COMPOSITIONS THEREOF, AND THEIR THERAPEUTIC APPLICATIONS” (NucMito Pharmaceuticals co. Ltd., priority 2022, published 2026)

Tests used:
Format in all cases: cell-based
[1] = test system: A431 (epidermoid carcinoma); test: Antiproliferative activity (CCK-8 cell viability), A431; conditions: Homo sapiens, 72 h, read-out: Antiproliferative activity in cancerous cells, A431 (inhibition of cell growth); for inhibition at 3.3 µM: A-431, Compound concentration: 3.3 μM; for inhibition at 10 µM: A-431, Compound concentration: 10 μM; for inhibition at 30 µM: A-431, Compound concentration: 30 μM
Method in brief: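 A431 epidermoid carcinoma cells grown in DMEM with 10% FBS were plated at 2,000-5,000 cells/well in 96-well plates. After attachment they were exposed to compound at 3.3 μM, 10 μM, or 30 μM for 72 h at 37° C. Viability was then assessed by CCK-8 against DMSO vehicle-treated wells.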

[2] = test system: A549 (lung adenocarcinoma); test: Antiproliferative activity (CCK-8 cell viability), A549; conditions: Homo sapiens, 72 h, read-out: Antiproliferative activity in cancerous cells, A549 (inhibition of cell growth); for inhibition at 3.3 µM: Compound concentration: 3.3 μM; for inhibition at 10 µM: Compound concentration: 10 μM; for inhibition at 30 µM: Compound concentration: 30 μM
Method in brief: (§1)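 Cells grown in DMEM (HepG2, SW480), MEM (HeLa) or F-12K (A549), each with 10% FBS, then exposed to compound at 3.3, 10 or 30 μM for 72 h at 37 °C. CCK-8 absorbance at 450 nm; viability expressed as percent of DMSO-treated cells, graded as growth inhibition bands.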

HeLa (cervical cancer) = test: Antiproliferative activity (CCK-8 cell viability), HeLa; conditions: Homo sapiens, 72 h, read-out: Antiproliferative activity in cancerous cells, HELA (inhibition of cell growth); for inhibition at 3.3 µM: Compound concentration: 3.3 μM; for inhibition at 10 µM: Compound concentration: 10 μM; for inhibition at 30 µM: Compound concentration: 30 μM
Method in brief: as §1

[3] = test system: MDA-MB-231 (breast cancer); test: Antiproliferative activity (CCK-8 cell viability), MDA-MB-231; conditions: Homo sapiens, 72 h, read-out: Antiproliferative activity in cancerous cells, MDA-MB-231 (inhibition of cell growth); for inhibition at 3.3 µM: Compound concentration: 3.3 μM; for inhibition at 10 µM: Compound concentration: 10 μM; for inhibition at 30 µM: Compound concentration: 30 μM
Method in brief: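 MDA-MB-231 breast cancer cells, grown in DMEM with 10% FBS, were plated in 96-well plates at 2,000-5,000 cells/well. Once attached, they were exposed to compound and incubated at 37° C. for 72 h. Viability was then measured with CCK-8 (10 μL per well, 4 h at 37° C.) by absorbance at 450 nm, relative to DMSO vehicle wells.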

[4] = test system: B16F10 (malignant melanoma); test: Antiproliferative activity (CCK-8 cell viability), B16F10; conditions: Mus musculus, 72 h, read-out: Antiproliferative activity in cancerous cells, B16F10 (inhibition of cell growth); for inhibition at 3.3 µM: B16-F10, Compound concentration: 3.3 μM; for inhibition at 10 µM: B16-F10, Compound concentration: 10 μM; for inhibition at 30 µM: B16-F10, Compound concentration: 30 μM
Method in brief: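 B16F10 melanoma cells grown in DMEM with 10% FBS were plated in 96-well plates at 2,000-5,000 cells/well. After attachment they were exposed to compound in medium for 72 h at 37° C. CCK-8 solution (10 μL) was then added, and after 4 h at 37° C absorbance was read at 450 nm.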

HepG2 (liver cancer) = test: Antiproliferative activity (CCK-8 cell viability), HepG2; conditions: Homo sapiens, 72 h, read-out: Antiproliferative activity in cancerous cells, HepG2 (inhibition of cell growth); for inhibition at 3.3 µM: Compound concentration: 3.3 μM; for inhibition at 10 µM: Compound concentration: 10 μM; for inhibition at 30 µM: Compound concentration: 30 μM
Method in brief: as §1

SW480 (colon cancer) = test: Antiproliferative activity (CCK-8 cell viability), SW480; conditions: Homo sapiens, 72 h, read-out: Antiproliferative activity in cancerous cells, SW480 (inhibition of cell growth); for inhibition at 3.3 µM: Compound concentration: 3.3 μM; for inhibition at 10 µM: Compound concentration: 10 μM; for inhibition at 30 µM: Compound concentration: 30 μM
Method in brief: as §1

SMILES | inhibition at 3.3 µM [1] | inhibition at 10 µM [1] | inhibition at 3.3 µM [2] | inhibition at 10 µM [2] | inhibition at 3.3 µM (HeLa (cervical cancer)) | inhibition at 10 µM (HeLa (cervical cancer)) | inhibition at 3.3 µM [3] | inhibition at 10 µM [3] | inhibition at 3.3 µM [4] | inhibition at 10 µM [4] | inhibition at 3.3 µM (HepG2 (liver cancer)) | inhibition at 10 µM (HepG2 (liver cancer)) | inhibition at 3.3 µM (SW480 (colon cancer)) | inhibition at 10 µM (SW480 (colon cancer)) | inhibition at 30 µM [1] | inhibition at 30 µM [2] | inhibition at 30 µM (HeLa (cervical cancer)) | inhibition at 30 µM [3] | inhibition at 30 µM [4] | inhibition at 30 µM (HepG2 (liver cancer)) | further results
CC1=C(CC(=O)O)c2cc(F)ccc2/C1=C\c1ccc(CCOC2CCCCO2)cc1 (stereo not shown) [B47, (Z)-2-(5-Fluoro-2-methyl-1-(4-(2-((tetrahydro-2H-pyran-2-yl)oxy)ethyl)-benzylidene)-1H-inden-3-yl)acetic acid] | 30 to 50% | 30 to 50% | < 30% | ≥ 50% | ≥ 50% | ≥ 50% | ≥ 50% | ≥ 50% | ≥ 50% | ≥ 50% | 30 to 50% | ≥ 50% | < 30% | ≥ 50% |  |  |  |  |  |  | 
CC1=C(CC(=O)O)c2cc(F)ccc2/C1=C\c1ccc(OC2CCC(F)(F)CC2)cc1 [C205, (Z)-2-(1-(4-((4,4-Difluorocyclohexyl)oxy)benzylidene)-5-fluoro-2-methyl-1H-inden-3-yl)acetic acid] | < 30% | 30 to 50% | < 30% | ≥ 50% | < 30% | ≥ 50% | ≥ 50% | ≥ 50% | ≥ 50% | ≥ 50% | < 30% | 30 to 50% | 30 to 50% | 30 to 50% | ≥ 50% | ≥ 50% | ≥ 50% | ≥ 50% | ≥ 50% | ≥ 50% | inhibition at 30 µM (SW480 (colon cancer)): ≥ 50%
CC1=C(CC(=O)O)c2cc(F)ccc2/C1=C/c1ccc(Oc2ccc(F)cc2F)cc1 [E17, (E)-2-(1-(4-(2,4-Difluorophenoxy)benzylidene)-5-fluoro-2-methyl-1H-inden-3-yl)acetic acid] | < 30% | ≥ 50% | < 30% | ≥ 50% | 30 to 50% | ≥ 50% | 30 to 50% | ≥ 50% | ≥ 50% | ≥ 50% | ≥ 50% | ≥ 50% | < 30% | ≥ 50% | ≥ 50% | ≥ 50% | ≥ 50% | ≥ 50% | ≥ 50% | ≥ 50% | inhibition at 30 µM (SW480 (colon cancer)): ≥ 50%
CC1=C(CC(=O)O)c2cc(F)ccc2/C1=C\c1ccc(Oc2ccc(Cl)cc2Cl)cc1 [C66, (Z)-2-(1-(4-(2,4-Dichlorophenoxy)benzylidene)-5-fluoro-2-methyl-1H-inden-3-yl)acetic acid] | ≥ 50% | ≥ 50% | 30 to 50% | ≥ 50% | ≥ 50% | ≥ 50% | < 30% | ≥ 50% | < 30% | ≥ 50% | ≥ 50% | ≥ 50% | < 30% | < 30% |  |  |  |  |  |  | 
